Assays:
[1] = tested on: adults with OSA and excessive sleepiness; test: Maintenance of Wakefulness Test (MWT), phase 3 randomized withdrawal study in OSA; assay type: in vivo, human; conditions: for MWT mean sleep latency after 4 weeks of APC treatment: randomized patients, mITT, 75, 150 or 300 mg once daily
Protocol: The MWT is an objective test used to measure how alert a subject is during the day. The test consists of four sleep trials with two hours in between the trials. The first trial is performed 1.5-3 hours after the subject's normal wake-up time. Sensors are placed on the head, face, and chin to detect when the subject is asleep and awake during the test. The subject sits quietly in bed with his or her back and head supported by a pillow and is asked to sit still and look straight ahead while trying to stay awake as long as possible. Each trial lasts 40 minutes or until the subject is asleep for 90 seconds. Between trials, the subject stays out of bed and occupies himself or herself to remain awake. Falling asleep in an average of less than eight minutes is considered abnormal. About 40-60% of subjects with normal sleep stay awake for the entire 40 minutes of all four trials.
The study was a double-blind, placebo-controlled, enriched, randomized withdrawal design (FIG. 1). In the Titration Phase (weeks 1-2), patients started on a once-daily dose of APC 75 mg and could be titrated up or down every 3 days to reach a maximum tolerated dose of APC 75, 150, or 300 mg. In the Stable-Dose Phase (weeks 3-4), patients continued to receive the dose that they were titrated to in the Titration Phase for 2 weeks. […]
Efficacy was based on change from week 4 to 6 on the co-primary endpoints of MWT and ESS and percentage of patients reported as improved on the PGI-C and Clinician Global Impression of Change (CGI-C); assessed on a 7-point scale from 1 (very much improved) to 7 (very much worse).
MWT and ESS data were analyzed using a mixed-effect model repeated measures (MMRM); PGI-C and CGI-C were evaluated using a chi-square test. […] Safety and tolerability were evaluated based on treatment-emergent adverse events (TEAEs), vital signs, and laboratory values.

[2] = tested on: adult patients with OSA and ES; test: SF-36v2 health-related quality of life, 12-week parallel study in OSA; assay type: in vivo, human; conditions: week 12
Protocol: This was a 12-week, double-blind, placebo-controlled, parallel-design study. Patients were randomized (1:1:2:2:2) to APC 37.5 mg, 75 mg, 150 mg, or 300 mg, or placebo for 12 weeks, and were stratified by adherence or nonadherence with primary OSA therapy.
The SF-36 v2 consists of 2 summary scales (Physical Component Summary and Mental Component Summary) and 8 specific health status domains (Physical Function, Role Physical, Bodily Pain, General Health, Vitality, Social Functioning, Role Emotional, Mental Health) (Ware Jr et al., User's Manual for the SF-36v2™ Health Survey (2nd ed). QualityMetric Incorporated (Lincoln, RI); 2007). The EQ-5D-5L consists of 5 questions/dimensions (Mobility, Self-care, Usual Activities, Pain/Discomfort, and Anxiety/Depression) that have 5 response levels each (no problems, slight problems, moderate problems, severe problems, and extreme problems/unable to do) that are used to derive an overall EQ-5D-5L index score (0=death, 1=perfect health), and a health status visual analog scale (VAS) that is anchored at 0 with “the worst health you can imagine” and at 100 with “the best health you can imagine.” (The EuroQol Group. EQ-5D-5L User Guide. Version 2.1. April 2015. www.eurogol.org/fileadmin/user_upload/Documenten/PDF/Folders_Flyers/EQ-5D-5L_UserGuide_2015.pdf)
Efficacy analyses were based on the modified intent-to-treat (mITT) population; there was no multiplicity adjustment for the SF-36 v2 or EQ-5D-5L. SF-36 v2 scores were scaled from 0 to 100 (higher scores on all scales represent better health), transformed to norm-based scores using US general-population data from SF-36 Manuals (Ware Jr et al., User's Manual for the SF-36v2™ Health Survey (2nd ed.). QualityMetric Incorporated (Lincoln, RI); 2007), and were analyzed using a mixed-effect model with repeated measures (MMRM); and baseline value of the efficacy endpoint was used to determine differences in changes from baseline. EQ-5D-5L VAS and index-score data were analyzed using an MMRM model. Safety and tolerability were assessed based on treatment-emergent adverse events (TEAEs), vital signs, electrocardiogram test, physical exams, and laboratory tests.

SMILES: NC(=O)OC[C@H](N)Cc1ccccc1 [JZP-110, (R)-2-amino-3-phenylpropyl carbamate]
- Change in mean MWT sleep latency from week 4 to week 6 ([1]; Double-Blind Withdrawal Phase, patients who remained on JZP-110, P<0.0001 vs switched to placebo): -1.0 min
- MWT mean sleep latency after 4 weeks of APC treatment ([1]; group increased from 12.3 at baseline): 29.0 min
- MWT mean sleep latency after 4 weeks of APC treatment ([1]; group increased from 13.1 at baseline): 31.7 min
- SF-36v2 Role Physical, General Health, Social Functioning, Role Emotional vs placebo ([2]; 150 mg): significantly greater changes from baseline relative to placebo
- SF-36v2 Role Physical and Vitality domains and Physical Component Summary Scale vs placebo ([2]; 300 mg): significantly greater improvements relative to placebo
- SF-36v2 Mental Component Summary scores vs placebo ([2]; 37.5, 75, 150 mg similar): only APC 150 mg reaching statistical significance
- SF-36v2 Vitality domain, response vs MCID ([2]; 75, 150, and 300 mg): exceeded the MCID
- SF-36v2 Physical Component Summary Scale, increase vs placebo ([2]; 150 and 300 mg): statistically significant
- SF-36v2 Vitality domain vs placebo ([2]; 150 and 300 mg): statistically significant improvements relative to placebo
- SF-36v2 Physical and Mental Component Summary changes vs MCID [2]: did not exceed the minimal clinically important difference
